Where two headings read alike, the source gives them in different places.

The subject of assay [1] is HIV-1 mutant Cys188RT in P4 cells. Nature of the assay: Anti-HIV assay on P4 cells, Cys188RT mutant. It is filed as cell-based. The text has this: (§1) In order to introduce mutation(s) at the level of the pol gene coding for the RT in the pNL4-3 plasmid containing the complete viral genome (Adachi et al., 1986. J. Virol., Vol. 59 p 284-291) we used the “Quick change mutagenesis kit” (Stratagene). The following mutations were separately introduced in pNL4-3: L100I, K103N, V108I, Y181C, Y188C, and the double mutations K103N/V108I. These mutations were chosen because of the resistance that they confer to existing NNRTI. The production procedure of the mutant viral stocks is identical to the one described above.
Anti-HIV activity and cytotoxicity of the compounds were tested on a P4 cell line. The P4 cell line (Clavel & Charneau, 1994. J. Virol., Vol. 68 p 1179-1185) was provided by Dr. François Clavel (Unité de recherche antivirale de l'hôpital Xavier Bichat Paris: Inserm). The P4 cells were cultured in complete DMEM medium supplemented with 10% fetal bovine serum (FBS), 0.5% of Penicillin/Streptomycin and G418 at 0.5 mg/ml. Exponentially growing cells were trypsinized, centrifuged and split twice weekly at 5.10^4 cells/ml.
The P4 cells are HIV-infectible Hela-CD4 cells that carry the bacterial lacZ gene under the control of the HIV-1 long terminal repeat (LTR). In this cell line, transcription of the LacZ gene is driven by the HIV-1 LTR. As such, the cytoplasmic accumulation of β-galactosidase is strictly dependent on the presence of the HIV transactivator Tat produced during the intracellular viral replication (Clavel & Charneau, 1994. J. Virol., Vol. 68, p. 1179-1185). In other words, in this system, the expression level of the β-galactosidase gene is proportional to the viral replication.
Briefly, in the anti-HIV assay 100 Ål of P4 cells were plated in 96-well plate at a concentration of 0.4 10^5 cells/ml and incubated at 37° C., 5% CO2. After 48 h, the medium was removed and 100 Ål of the different drugs dilutions were added to the cells. Four hours after the addition of the drugs all cells were infected with equal amount of cell-free virus, corresponding to 100 ng of HIV p24 antigen. After 48 h of incubation at 37° C., 5% CO2, β-galactosidase activity was measured using chlorophenol red-β-D-galactopyranoside assays.
The absorbance was measured on a Benchmark™ Microplate Reader (Biorad) (λ=570 nm) and compared with 12 cell control replicates (no virus or drug added) and 12 virus control wells (no drug added). Each assay was performed a minimum of three times. The 50% effective concentration (Ec50) was calculated from each dose response curve using the CurveExpert 1.3 software. As Nevirapine activity corresponds to its published values (10-100 nM), the data are consistent with other measures of viral replication.

For assay [2], the system named is HIV-1 mutant Asn103RT in TZM-bl cells. Nature of the assay: Anti-HIV assay on TZM-bl cells, Asn103RT mutant. It is filed as cell-based. Particulars: read-out: EC50 Asn103RT TZM-bl.
Source text: as §1
(§2) Anti-HIV activity and cytotoxicity of the compounds were tested on the TZM-b1 cell line. The TZM-b1 cell line (Wei et al. 2002. Antimicrob. Agents Chemother. Vol. 46, p 1896-1905) was received from the NIH AIDS Research and Reference Reagent Program. These cells were cultured in complete DMEM medium supplemented with 10% fetal bovine serum (FBS), and 1% Penicillin/Streptomycin. Exponentially growing cells were trypsinized, centrifuged and split twice weekly at 5 10^4 cells/ml.
(§3) The anti-HIV assay with TZM-b1 cells is essentially the same as described above with P4 cells. The main difference between the two cell lines is that the TZM-b1 cells express at their surface both the CD4 and CCR5 proteins, acting as receptor and co-receptor for HIV entry, respectively (Wei et al. 2002. Antimicrob. Agents Chemother. Vol. 46, p 1896-1905). This feature makes the cells very sensitive to infection by the virus. The TMZ-b1 cells were infected with equal amount of cell-free virus, corresponding to 10 ng of HIV p24 antigen. This amount is ten times lower than the amount used to infect the P4 cells.

For assay [3], the system named is HIV-1 mutant Ile100RT in TZM-bl cells. Nature of the assay: Anti-HIV assay on TZM-bl cells, Ile100RT mutant. It is filed as cell-based. Particulars: read-out: EC50 Ile100RT TZM-bl.
Source text: as §1, §2, §3

In assay [4] the test system is HIV-1 mutant Ile108RT in TZM-bl cells. Nature of the assay: Anti-HIV assay on TZM-bl cells, Ile108RT mutant. As to conditions: read-out: EC50 Ile108RT TZM-bl. It is filed as cell-based.
Source text: as §1, §2, §3

In assay [5] the target is T1, HIV-1 reverse transcriptase (Human immunodeficiency virus type 1 group M subtype B, UniProt P04585).
T1 construct: fixed-time assay for HIV-1 reverse transcriptase RNA dependent DNA polymerase activity; RT was purchased from Calbiochem; purchased Calbiochem CAL382129-500
Nature of the assay: HIV-1 in vitro reverse transcriptase activity (fixed-time RNA dependent DNA polymerase assay). It is filed as biochemical. As to conditions: residual RT activity, compound at 10 μM; RT activity without compound set at 100%. The procedure: For the in vitro inhibition studies of the HIV-1 reverse transcriptase activity, stock solutions of the compounds of the present invention were prepared in dimethyl sulfoxide at a final concentration of 10 mM and kept at room temperature. Nevirapine was purchased from Boehringer Ingelheim. Efavirenz was received from the NIH AIDS Research and Reference Reagent Program.
In vitro inhibition studies used a fixed-time assay for HIV-1 reverse transcriptase RNA dependent DNA polymerase activity. RT was purchased from Calbiochem (ref CAL382129-500). One unit of RT corresponds to the amount of enzyme which incorporates one nanomole of [^3H]TTP in 10 minutes at 37° C.
Assays were performed in a final volume of 50 μl. […] Reaction mixtures were incubated at 37° C. for 10 min. The incorporation rate was determined by a standard trichloroacetic acid precipitation procedure (adapted from Current protocols in molecular biology. Eds Wiley, MGH Harvard medical school) and liquid scintillation counting using a Wallac scintillation counter.
The in vitro activity of the compounds, at a final concentration of 10 μM, on the reverse transcriptase (RT) activity of HIV-1 is derivable from the relative (%) reduction in RT activity. Hereby, the RT activity in the absence of any of the compounds is set at 100%.

Where [6] appears, read: Human immunodeficiency virus 1, read-out: EC50 Cys188RT P4.
The mark [7] stands for this setting: Human immunodeficiency virus 1, TZM-bl.
Setting [8] is: P4, mutant Cys188RT, read-out: EC50 Cys188RT P4.

A word on the EC50: it is the concentration at which the effect is half-maximal. In the case of `O=C1Nc2ccc(Cl)cc2[C@@](C#CC2CC2)(C(F)(F)F)O1` [Efavirenz, reference compound], the EC50 in assay [1] (setting [6]) was under 1 nM; in assay [2] (setting [7]) it was 35 nM; in assay [3] (setting [7]), 17 nM; in assay [4] (setting [7]) it was under 6 nM.

As for `Cc1ccnc2c1NC(=O)c1cccnc1N2C1CC1` [Nevirapine, reference compound], the EC50 in assay [1] (setting [6]) was found to be 1640 nM; in assay [2] (setting [7]) it was 2100 nM; in assay [3] (setting [7]) it was 50 nM; in assay [4] (setting [7]) it was 91 nM. The “Relative (%) RT activity in vitro (compound added at 10 μM)” value (from here on “Relative (%) RT activity in vitro”) in assay [5] is listed as 16.7%.

As for `CCOC(=O)c1c(OC2CC(C)CC(C)C2)c(CC)c(C)[nH]c1=O` (single isomer, unassigned) [Z37inv], the EC50 in assay [1] (setting [8]) stood at 10 nM; in assay [4] (TZM-bl, mutant Ile108RT) it was 1090 nM. Also, the “Relative (%) RT activity in vitro” value in assay [5] was found to be 5.5%.

Turning to `CCc1c(C)[nH]c(=O)c(N(C)C)c1OC1CC(C)CC(C)C1` (stereo not shown) [Z150, 3-(dimethylamino)-5-ethyl-6-methyl-4-[(3,5-dimethylcyclohexyl)oxy]pyridine-2(1H)-one], the EC50 was under 1 nM in assay [1] (setting [6]), 11 nM in assay [2] (setting [7]), 20 nM in assay [3] (setting [7]) and 4 nM in assay [4] (setting [7]). Also, in assay [5], the “Relative (%) RT activity in vitro” value was 0.9%.

As to `CCc1c(C)[nH]c(=O)c(CO)c1OC1CC(C)CC(C)C1` (stereo not shown) [Z45inv], the EC50 in assay [1] (setting [8]) stood at 8 nM; in assay [3] (TZM-bl, mutant Ile100RT), 382 nM. The “Relative (%) RT activity in vitro” value in assay [5] came out at 12.1%.

As for `CCc1c(C)[nH]c(=O)c([N+](=O)[O-])c1OC1CC(C)CC(C)C1` (stereo not shown) [Z91inv, 3-nitro-5-ethyl-6-methyl-4-[(3,5-dimethylcyclohexyl)oxy]pyridine-2(1H)-one], the half-maximal effective concentration (EC50) in assay [1] (setting [6]) was under 1 nM; in assay [2] (setting [7]), 355 nM; in assay [3] (setting [7]), 2 nM; in assay [4] (setting [7]) it was under 1 nM. Besides, the “Relative (%) RT activity in vitro” value in assay [5] stood at 0%.

Regarding `CCc1c(C)[nH]c(=O)c(C)c1OC1CC(C)CC(C)C1` (stereo not shown) [Z154], the EC50 was under 1 nM in assay [1] (setting [8]); 29 nM in assay [2] (TZM-bl, mutant Asn103RT); 40 nM in assay [3] (TZM-bl, mutant Ile100RT); 14 nM in assay [4] (TZM-bl, mutant Ile108RT). Also, the “Relative (%) RT activity in vitro” value in assay [5] was determined as 1.6%.

Take `CCc1c(C)[nH]c(=O)c(CSC(C)=O)c1OC1CC(C)CC(C)C1` (stereo not shown) [Z114]: the EC50 in assay [1] (setting [8]) was found to be 3 nM; in assay [2] (TZM-bl, mutant Asn103RT) it was 584 nM; in assay [3] (TZM-bl, mutant Ile100RT) it was 77 nM; in assay [4] (TZM-bl, mutant Ile108RT) it was 12 nM. The “Relative (%) RT activity in vitro” value in assay [5] is on record as 0%.

Take `CCc1c(C)[nH]c(=O)c(CN=[N+]=[N-])c1OC1CC(C)CC(C)C1` (stereo not shown) [Z153]: the EC50 in assay [1] (setting [8]) was under 1 nM; in assay [2] (TZM-bl, mutant Asn103RT), 42 nM; in assay [3] (TZM-bl, mutant Ile100RT), 29 nM; in assay [4] (TZM-bl, mutant Ile108RT), 1 nM. Also, the “Relative (%) RT activity in vitro” value in assay [5] is recorded as 0.7%.

The values above are taken from patent US20070275953A1 (priority 2003, published 2007).
